Data on 2 molecules can be found in article PMC11441106 (Journal of medicinal chemistry, 2024).

Series [1] in a line: in vivo. Conditions: rat.
Series [2] concerns GABAA. The experiment in a line: NIMH-PDSP broad-panel counter screening.
Series [3] deals with T1, α 1D (Homo sapiens, UniProt P25100).
T1 sequence (P25100 1-572): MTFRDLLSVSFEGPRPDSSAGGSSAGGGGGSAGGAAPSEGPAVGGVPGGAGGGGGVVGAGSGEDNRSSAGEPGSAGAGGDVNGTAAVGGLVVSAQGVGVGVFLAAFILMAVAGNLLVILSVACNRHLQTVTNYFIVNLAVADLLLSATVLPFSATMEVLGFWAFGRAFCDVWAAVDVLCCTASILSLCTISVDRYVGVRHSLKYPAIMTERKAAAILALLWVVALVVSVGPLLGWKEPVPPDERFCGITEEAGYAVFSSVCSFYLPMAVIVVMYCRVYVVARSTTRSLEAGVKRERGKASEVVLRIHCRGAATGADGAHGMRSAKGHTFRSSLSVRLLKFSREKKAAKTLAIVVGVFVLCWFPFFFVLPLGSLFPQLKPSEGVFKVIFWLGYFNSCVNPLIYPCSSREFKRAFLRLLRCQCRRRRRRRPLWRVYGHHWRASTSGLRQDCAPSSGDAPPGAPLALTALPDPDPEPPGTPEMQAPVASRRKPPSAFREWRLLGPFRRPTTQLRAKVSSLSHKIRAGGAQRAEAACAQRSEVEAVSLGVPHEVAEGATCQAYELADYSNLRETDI
The experiment in a line: NIMH-PDSP broad-panel counter screening. Conditions: read-out: % inhibition (10 μM).

The target of series [4] is hERG (Homo sapiens, UniProt Q12809). It is filed as binding.
hERG, sequence (Q12809 whole entry): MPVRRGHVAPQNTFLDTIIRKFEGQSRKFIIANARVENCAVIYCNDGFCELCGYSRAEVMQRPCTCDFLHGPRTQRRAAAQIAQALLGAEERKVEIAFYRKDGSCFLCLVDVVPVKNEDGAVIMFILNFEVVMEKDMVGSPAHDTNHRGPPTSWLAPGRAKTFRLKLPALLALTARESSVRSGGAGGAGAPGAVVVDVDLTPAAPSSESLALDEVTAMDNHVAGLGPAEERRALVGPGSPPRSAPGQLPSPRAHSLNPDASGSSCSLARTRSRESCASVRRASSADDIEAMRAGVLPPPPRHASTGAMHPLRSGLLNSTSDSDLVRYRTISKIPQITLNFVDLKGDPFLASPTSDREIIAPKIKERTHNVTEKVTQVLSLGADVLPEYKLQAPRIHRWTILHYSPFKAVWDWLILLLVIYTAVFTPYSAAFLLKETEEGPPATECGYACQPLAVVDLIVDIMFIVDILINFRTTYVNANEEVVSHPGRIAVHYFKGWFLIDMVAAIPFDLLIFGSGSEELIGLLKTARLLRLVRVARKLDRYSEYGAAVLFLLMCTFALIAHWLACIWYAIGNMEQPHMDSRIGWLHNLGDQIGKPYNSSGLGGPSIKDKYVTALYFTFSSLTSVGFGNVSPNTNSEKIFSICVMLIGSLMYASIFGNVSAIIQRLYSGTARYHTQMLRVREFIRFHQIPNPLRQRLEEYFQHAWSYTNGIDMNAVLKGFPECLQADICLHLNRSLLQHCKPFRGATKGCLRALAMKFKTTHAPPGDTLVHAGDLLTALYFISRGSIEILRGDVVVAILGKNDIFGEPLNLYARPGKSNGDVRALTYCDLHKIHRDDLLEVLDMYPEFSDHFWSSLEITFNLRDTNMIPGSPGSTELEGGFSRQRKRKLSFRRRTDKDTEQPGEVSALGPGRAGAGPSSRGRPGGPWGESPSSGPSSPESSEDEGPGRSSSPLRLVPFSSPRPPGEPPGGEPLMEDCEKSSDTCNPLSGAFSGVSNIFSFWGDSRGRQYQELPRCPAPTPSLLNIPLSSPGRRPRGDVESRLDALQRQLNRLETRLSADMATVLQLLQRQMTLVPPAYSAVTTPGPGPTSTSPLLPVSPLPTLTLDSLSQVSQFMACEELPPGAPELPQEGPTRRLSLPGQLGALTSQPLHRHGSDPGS
Series [5] has as its target D1R (Homo sapiens, UniProt P21728). The experiment in a line: Tango β-arrestin recruitment at D1R. The series is classed as cell-based. Conditions: Tango assay.

Structures are written as SMILES.

D1R, sequence (P21728 whole entry): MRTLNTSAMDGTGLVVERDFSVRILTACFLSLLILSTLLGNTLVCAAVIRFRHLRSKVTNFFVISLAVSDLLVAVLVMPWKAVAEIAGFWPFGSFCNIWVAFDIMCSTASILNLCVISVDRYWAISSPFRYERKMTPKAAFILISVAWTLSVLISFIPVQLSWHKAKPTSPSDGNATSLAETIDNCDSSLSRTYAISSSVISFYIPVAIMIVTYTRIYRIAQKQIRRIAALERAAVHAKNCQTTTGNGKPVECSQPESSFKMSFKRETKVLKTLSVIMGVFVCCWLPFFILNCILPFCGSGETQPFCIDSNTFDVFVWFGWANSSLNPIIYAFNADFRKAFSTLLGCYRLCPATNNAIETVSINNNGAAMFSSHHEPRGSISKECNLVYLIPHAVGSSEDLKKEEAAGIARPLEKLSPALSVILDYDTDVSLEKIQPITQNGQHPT

As for `Cc1c(Nc2cc(Cc3cccc(C(F)(F)F)c3)ccn2)cccc1C(=O)NCCO` [Compound 15b, N-(2-Hydroxyethyl)-2-methyl-3-((4-(3-(trifluoromethyl)benzyl)-pyridin-2-yl)amino)benzamide], the Vd in series [1] (male, Sprague-Dawley, plasma, iv, 10 mg/kg) was determined as 1.85 L/kg. Further, the CL in series [1] (in vivo, po, 20 mg/kg) came out at 103 ± 35 mL/min/kg. In series [2], the “% inhibition (10 μM)” value is −17.94%. Further, the inhibition at 10 µM in series [3] is -10.5%. The “hERG inhibition or binding affinity” value in series [4] is “did not show inhibition or binding affinity”.
Take `O=C(NCCO)c1cccc2c1CCN2c1cc(Cc2cccc(C(F)(F)F)c2)ccn1` [Compound 4a]: the “β-arrestin recruitment response at D1R” value in series [5] is on record as “no response”.
